Results from ChEMBL document CHEMBL1201862, “PubChem BioAssay data set” (2004).
One block for each molecule: values may come before it. The source made the active and inactive calls.

How the values were obtained:
Assay type in all cases: functional
[1] = target: T1, Apoptotic protease-activating factor 1 (Homo sapiens, UniProt O14727); assay: SAR analysis of small molecule inhibitors of Apaf-1 in a Fluorescent assay.; details: read-out: IC50_Mean
T1 sequence (O14727 whole entry): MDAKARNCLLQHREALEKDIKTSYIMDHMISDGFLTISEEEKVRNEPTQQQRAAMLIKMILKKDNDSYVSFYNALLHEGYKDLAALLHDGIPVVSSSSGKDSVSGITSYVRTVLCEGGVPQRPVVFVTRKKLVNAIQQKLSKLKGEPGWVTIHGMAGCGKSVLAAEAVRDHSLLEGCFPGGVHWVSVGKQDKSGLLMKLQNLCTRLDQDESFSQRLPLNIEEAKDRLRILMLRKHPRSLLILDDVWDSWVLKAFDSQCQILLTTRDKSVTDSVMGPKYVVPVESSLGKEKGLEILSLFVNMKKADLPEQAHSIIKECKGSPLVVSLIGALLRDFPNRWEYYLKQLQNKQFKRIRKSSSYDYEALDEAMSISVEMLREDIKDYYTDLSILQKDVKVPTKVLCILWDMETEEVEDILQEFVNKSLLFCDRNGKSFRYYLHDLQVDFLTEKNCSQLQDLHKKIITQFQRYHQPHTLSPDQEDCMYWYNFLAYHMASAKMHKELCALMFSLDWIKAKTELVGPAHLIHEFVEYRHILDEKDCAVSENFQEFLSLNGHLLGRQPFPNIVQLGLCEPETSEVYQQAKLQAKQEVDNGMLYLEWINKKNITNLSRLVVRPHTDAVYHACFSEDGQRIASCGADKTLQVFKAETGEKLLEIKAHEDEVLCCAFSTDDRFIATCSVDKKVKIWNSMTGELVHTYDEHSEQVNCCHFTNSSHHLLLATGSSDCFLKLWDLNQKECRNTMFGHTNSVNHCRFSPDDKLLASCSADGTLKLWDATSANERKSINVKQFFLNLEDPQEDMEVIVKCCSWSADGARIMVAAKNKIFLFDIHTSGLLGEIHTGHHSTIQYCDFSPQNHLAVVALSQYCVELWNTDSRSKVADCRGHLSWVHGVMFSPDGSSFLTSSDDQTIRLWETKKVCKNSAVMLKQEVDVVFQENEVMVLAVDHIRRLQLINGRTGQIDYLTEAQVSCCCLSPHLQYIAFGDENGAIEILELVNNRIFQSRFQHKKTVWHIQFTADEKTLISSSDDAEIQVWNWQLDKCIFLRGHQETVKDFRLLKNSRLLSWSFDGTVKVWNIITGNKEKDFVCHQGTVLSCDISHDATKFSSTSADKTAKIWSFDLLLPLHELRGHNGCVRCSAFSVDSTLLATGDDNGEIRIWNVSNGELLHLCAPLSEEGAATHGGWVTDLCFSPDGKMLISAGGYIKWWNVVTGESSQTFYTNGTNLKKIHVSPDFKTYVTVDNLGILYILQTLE

[2] = target: Calcium/calmodulin-dependent protein kinase type II subunit alpha (Homo sapiens, UniProt Q9UQM7); assay: Navigating the Kinome. Panel member name: CAMK2A
Focal adhesion kinase 1 = Focal adhesion kinase 1 (Homo sapiens, UniProt Q05397);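 also: measured as one member of a kinome panel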
[3] = target: Hepatocyte growth factor receptor (Homo sapiens, UniProt P08581);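 also: kinase panel profiling across the kinome, with MET as the panel member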
[4] = target: ALK tyrosine kinase receptor (Homo sapiens, UniProt Q9UM73);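 also: ALK tested as one member of a kinase panel screen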
[5] = target: Dual specificity tyrosine-phosphorylation-regulated kinase 1B (Homo sapiens, UniProt Q9Y463); assay: Navigating the Kinome. Panel member name: DYRK1B
[6] = target: cAMP-dependent protein kinase catalytic subunit PRKX (Homo sapiens, UniProt P51817)
[7] = target: Mitogen-activated protein kinase kinase kinase kinase 4 (Homo sapiens, UniProt O95819)
[8] = target: Dual specificity protein kinase CLK4 (Homo sapiens, UniProt Q9HAZ1)
[9] = target: Tyrosine-protein kinase receptor TYRO3 (Homo sapiens, UniProt Q06418);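 also: TYRO3 value obtained as one member of a kinome-wide profiling panel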
[10] = target: Fibroblast growth factor receptor 1 (Homo sapiens, UniProt P11362)
Sequence of Fibroblast growth factor receptor 1 (P11362 whole entry): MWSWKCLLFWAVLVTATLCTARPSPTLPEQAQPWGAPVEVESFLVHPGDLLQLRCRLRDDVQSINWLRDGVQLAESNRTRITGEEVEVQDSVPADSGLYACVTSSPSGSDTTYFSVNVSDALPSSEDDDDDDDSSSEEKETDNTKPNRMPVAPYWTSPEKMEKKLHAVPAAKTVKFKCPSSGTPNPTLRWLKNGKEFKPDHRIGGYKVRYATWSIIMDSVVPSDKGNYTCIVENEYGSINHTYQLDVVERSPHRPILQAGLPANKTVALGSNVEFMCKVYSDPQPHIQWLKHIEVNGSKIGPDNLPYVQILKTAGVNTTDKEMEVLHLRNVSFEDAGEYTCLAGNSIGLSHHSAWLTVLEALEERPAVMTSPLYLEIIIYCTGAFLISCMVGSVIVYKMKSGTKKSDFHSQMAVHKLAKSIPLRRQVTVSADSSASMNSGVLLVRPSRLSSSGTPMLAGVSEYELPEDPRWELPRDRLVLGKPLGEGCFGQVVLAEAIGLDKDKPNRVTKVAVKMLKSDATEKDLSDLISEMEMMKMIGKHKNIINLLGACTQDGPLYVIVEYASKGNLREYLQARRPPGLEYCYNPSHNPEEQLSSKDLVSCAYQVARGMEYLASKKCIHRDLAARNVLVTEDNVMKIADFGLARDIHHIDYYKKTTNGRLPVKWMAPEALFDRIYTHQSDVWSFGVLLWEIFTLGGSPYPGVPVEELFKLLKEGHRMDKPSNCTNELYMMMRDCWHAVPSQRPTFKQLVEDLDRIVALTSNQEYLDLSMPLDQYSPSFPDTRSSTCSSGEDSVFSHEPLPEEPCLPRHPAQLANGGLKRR

[11] = target: Glycogen synthase kinase-3 beta (Homo sapiens, UniProt P49841);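 also: value comes from a broad kinome profiling panel, with GSK3B as the panel member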
Aurora kinase A = Aurora kinase A (Homo sapiens, UniProt O14965);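 also: value from the Navigating the Kinome kinase panel profiling, panel entry STK6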
[12] = target: Macrophage colony-stimulating factor 1 receptor (Homo sapiens, UniProt P07333);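 also: value comes from the Navigating the Kinome screening panel, CSF1R member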
Sequence of Macrophage colony-stimulating factor 1 receptor (P07333 whole entry): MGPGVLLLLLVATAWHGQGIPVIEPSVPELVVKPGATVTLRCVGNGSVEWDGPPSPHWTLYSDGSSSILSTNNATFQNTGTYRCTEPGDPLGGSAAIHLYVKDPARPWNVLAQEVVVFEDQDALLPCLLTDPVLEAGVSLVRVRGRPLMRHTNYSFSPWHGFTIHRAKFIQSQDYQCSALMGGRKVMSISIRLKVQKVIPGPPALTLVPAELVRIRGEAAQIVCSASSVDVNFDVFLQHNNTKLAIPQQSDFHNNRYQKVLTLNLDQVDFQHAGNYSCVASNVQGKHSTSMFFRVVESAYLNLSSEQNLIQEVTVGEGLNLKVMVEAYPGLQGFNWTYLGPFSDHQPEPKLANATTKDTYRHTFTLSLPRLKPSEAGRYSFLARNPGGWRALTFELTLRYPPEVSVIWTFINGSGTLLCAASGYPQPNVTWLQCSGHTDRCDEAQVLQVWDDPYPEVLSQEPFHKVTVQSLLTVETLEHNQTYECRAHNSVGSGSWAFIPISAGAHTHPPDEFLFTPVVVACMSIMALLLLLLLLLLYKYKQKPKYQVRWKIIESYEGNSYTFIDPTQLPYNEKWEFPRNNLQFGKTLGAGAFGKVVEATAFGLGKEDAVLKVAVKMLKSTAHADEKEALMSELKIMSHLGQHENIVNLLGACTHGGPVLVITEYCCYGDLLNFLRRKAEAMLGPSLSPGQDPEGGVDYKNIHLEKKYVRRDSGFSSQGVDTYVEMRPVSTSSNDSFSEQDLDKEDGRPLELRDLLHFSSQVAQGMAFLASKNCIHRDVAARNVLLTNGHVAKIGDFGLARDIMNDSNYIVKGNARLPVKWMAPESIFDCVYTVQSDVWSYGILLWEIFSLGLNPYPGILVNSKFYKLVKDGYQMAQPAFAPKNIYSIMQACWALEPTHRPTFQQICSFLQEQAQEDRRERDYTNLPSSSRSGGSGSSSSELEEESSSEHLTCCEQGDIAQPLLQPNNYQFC

[13] = target: Cyclin-dependent kinase 9 (Homo sapiens, UniProt P50750);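 also: value from the CDK9 entry of a kinome-spanning kinase panel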
[14] = target: Platelet-derived growth factor receptor beta (Homo sapiens, UniProt P09619);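 also: value comes from a kinome panel, with PDGFRB tested as one panel member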
Sequence of Platelet-derived growth factor receptor beta (P09619 whole entry): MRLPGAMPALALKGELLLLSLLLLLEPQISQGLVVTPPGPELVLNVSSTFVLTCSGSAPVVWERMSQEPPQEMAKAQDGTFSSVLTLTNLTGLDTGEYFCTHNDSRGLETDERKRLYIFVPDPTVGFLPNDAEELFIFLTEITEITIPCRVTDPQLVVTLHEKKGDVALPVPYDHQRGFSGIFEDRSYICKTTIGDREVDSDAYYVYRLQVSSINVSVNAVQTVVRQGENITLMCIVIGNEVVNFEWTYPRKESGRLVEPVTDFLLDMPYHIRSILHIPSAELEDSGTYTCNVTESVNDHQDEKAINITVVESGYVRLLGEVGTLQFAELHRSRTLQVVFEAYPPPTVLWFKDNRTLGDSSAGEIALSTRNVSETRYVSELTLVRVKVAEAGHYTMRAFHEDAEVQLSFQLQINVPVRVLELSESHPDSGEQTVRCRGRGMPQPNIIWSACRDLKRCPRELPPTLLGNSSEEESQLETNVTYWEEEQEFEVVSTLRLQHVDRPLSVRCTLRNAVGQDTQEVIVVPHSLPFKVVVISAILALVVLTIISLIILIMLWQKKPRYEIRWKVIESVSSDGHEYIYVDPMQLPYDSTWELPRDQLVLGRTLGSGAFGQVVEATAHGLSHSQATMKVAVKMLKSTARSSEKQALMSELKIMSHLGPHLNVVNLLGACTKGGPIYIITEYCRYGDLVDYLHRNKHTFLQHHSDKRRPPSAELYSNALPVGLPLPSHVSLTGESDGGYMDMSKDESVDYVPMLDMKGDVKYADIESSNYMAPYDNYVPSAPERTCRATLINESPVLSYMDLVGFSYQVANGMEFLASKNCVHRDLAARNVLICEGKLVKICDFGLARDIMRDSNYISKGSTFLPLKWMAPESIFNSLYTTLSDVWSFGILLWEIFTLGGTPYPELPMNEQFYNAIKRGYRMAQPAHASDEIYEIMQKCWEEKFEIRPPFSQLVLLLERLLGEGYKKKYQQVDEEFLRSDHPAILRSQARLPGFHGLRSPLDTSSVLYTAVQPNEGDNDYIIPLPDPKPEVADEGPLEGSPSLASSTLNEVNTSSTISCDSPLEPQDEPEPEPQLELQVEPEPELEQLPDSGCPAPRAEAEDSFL

[15] = target: Dual specificity protein kinase CLK2 (Homo sapiens, UniProt P49760)
Sequence of Dual specificity protein kinase CLK2 (P49760 whole entry): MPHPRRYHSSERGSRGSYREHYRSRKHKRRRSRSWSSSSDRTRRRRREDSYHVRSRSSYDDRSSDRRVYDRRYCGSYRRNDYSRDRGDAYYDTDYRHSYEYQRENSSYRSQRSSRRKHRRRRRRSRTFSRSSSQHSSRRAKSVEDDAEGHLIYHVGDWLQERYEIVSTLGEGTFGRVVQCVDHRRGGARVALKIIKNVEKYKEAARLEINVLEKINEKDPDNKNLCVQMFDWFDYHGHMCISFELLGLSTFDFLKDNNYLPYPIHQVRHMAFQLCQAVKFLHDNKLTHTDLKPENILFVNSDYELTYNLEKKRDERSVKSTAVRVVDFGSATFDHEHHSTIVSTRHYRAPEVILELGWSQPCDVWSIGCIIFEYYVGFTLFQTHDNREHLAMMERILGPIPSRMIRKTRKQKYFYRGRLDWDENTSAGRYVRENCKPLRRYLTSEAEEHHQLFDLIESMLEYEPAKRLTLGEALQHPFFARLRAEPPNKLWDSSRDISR

Activated CDC42 kinase 1 = Activated CDC42 kinase 1 (Homo sapiens, UniProt Q07912); assay: Navigating the Kinome. Panel member name: ACK1
[16] = target: Vascular endothelial growth factor receptor 1 (Homo sapiens, UniProt P17948);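 also: measured within a kinome-wide profiling panel, FLT1 as the panel member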
[17] = target: Mitogen-activated protein kinase kinase kinase kinase 2 (Homo sapiens, UniProt Q12851);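 also: measured as one member of a kinome-wide kinase panel, with MAP4K2 as the panel entry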
[18] = target: Cyclin-dependent kinase 7 (Homo sapiens, UniProt P50613);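 also: value comes from a kinome-wide kinase profiling panel in which CDK7 is one member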
Sequence of Cyclin-dependent kinase 7 (P50613 whole entry): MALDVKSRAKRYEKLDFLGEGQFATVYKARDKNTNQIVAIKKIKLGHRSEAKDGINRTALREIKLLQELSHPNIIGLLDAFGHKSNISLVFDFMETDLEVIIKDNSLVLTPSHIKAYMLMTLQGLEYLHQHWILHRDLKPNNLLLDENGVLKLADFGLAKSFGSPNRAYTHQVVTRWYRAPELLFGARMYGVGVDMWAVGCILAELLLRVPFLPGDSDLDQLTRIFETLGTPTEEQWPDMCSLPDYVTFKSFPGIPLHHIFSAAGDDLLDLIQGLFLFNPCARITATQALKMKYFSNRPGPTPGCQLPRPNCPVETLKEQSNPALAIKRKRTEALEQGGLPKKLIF

Activin receptor type-1 = Activin receptor type-1 (Homo sapiens, UniProt Q04771); assay: Navigating the Kinome. Panel member name: ACVR1
[19] = target: Macrophage-stimulating protein receptor (Homo sapiens, UniProt Q04912); assay: Navigating the Kinome. Panel member name: MST1R
[20] = target: Protein kinase C theta type (Homo sapiens, UniProt Q04759); assay: Navigating the Kinome. Panel member name: PRKCQ
[21] = target: Leukocyte tyrosine kinase receptor (Homo sapiens, UniProt P29376); assay: Navigating the Kinome. Panel member name: LTK
Sequence of Leukocyte tyrosine kinase receptor (P29376 whole entry): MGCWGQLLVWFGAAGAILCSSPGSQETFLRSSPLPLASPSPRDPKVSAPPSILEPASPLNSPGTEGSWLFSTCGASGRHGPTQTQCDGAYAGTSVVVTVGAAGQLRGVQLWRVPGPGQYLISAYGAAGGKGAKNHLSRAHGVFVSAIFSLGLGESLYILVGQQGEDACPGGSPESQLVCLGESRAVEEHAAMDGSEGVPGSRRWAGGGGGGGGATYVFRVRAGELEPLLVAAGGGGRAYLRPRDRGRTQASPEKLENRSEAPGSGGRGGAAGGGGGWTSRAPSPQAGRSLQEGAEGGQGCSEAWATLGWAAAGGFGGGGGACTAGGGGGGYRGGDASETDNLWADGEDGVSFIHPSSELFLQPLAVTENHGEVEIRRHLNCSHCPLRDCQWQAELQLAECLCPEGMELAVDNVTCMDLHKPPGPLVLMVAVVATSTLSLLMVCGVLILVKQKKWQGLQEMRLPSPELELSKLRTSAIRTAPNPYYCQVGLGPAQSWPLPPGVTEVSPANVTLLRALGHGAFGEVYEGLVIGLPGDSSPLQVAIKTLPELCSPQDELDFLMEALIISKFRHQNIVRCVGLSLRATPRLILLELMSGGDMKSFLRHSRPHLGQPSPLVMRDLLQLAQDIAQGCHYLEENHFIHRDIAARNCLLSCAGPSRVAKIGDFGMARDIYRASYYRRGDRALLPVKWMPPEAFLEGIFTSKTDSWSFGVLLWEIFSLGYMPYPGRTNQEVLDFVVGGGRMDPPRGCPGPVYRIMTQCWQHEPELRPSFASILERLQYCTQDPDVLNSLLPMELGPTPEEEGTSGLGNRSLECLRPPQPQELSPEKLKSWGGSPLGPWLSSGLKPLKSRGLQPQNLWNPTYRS

[22] = target: Death-associated protein kinase 3 (Homo sapiens, UniProt O43293);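 also: measured as one member of a kinome-wide profiling panel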
[23] = target: Casein kinase I isoform alpha (Homo sapiens, UniProt P48729)
[24] = target: Dual specificity tyrosine-phosphorylation-regulated kinase 1A (Homo sapiens, UniProt Q13627);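 also: measured against DYRK1A as one member of a broad kinome profiling panel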
[25] = target: Dual specificity mitogen-activated protein kinase kinase 1 (Homo sapiens, UniProt Q02750); assay: Navigating the Kinome. Panel member name: MAP2K1
[26] = target: Dual specificity mitogen-activated protein kinase kinase 2 (Homo sapiens, UniProt P36507); assay: Navigating the Kinome. Panel member name: MAP2K2
[27] = target: Tyrosine-protein kinase ABL1 (Homo sapiens, UniProt P00519)
[28] = target: Serine/threonine-protein kinase D3 (Homo sapiens, UniProt O94806);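 also: determined within a kinase panel screen, with PRKCN as the panel member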
[29] = target: Leucine-rich repeat serine/threonine-protein kinase 2 (Homo sapiens, UniProt Q5S007);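 also: value from a broad kinome-wide panel profiling study in which LRRK2 was one of the kinases tested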
[30] = target: Vascular endothelial growth factor receptor 2 (Homo sapiens, UniProt P35968)
[31] = target: Rho-associated protein kinase 1 (Homo sapiens, UniProt Q13464);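 also: measured within a broad kinome-wide panel profiling many kinases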
[32] = target: Cyclin-dependent kinase 5 (Homo sapiens, UniProt Q00535);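 also: CDK5 measured as one member of a kinase profiling panel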
[33] = target: Glycogen synthase kinase-3 alpha (Homo sapiens, UniProt P49840);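 also: GSK3A result taken from a broad kinome-wide kinase panel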
[34] = target: cAMP-dependent protein kinase catalytic subunit alpha (Homo sapiens, UniProt P17612)
[35] = target: T2, Neuropeptides B/W receptor type 1 (Homo sapiens, UniProt P48145); assay: GPR7 antagonist potency, late-stage follow-up, cell-based, fluorescence, dose response, set 5 (AID 588566)
T2 sequence (P48145 whole entry): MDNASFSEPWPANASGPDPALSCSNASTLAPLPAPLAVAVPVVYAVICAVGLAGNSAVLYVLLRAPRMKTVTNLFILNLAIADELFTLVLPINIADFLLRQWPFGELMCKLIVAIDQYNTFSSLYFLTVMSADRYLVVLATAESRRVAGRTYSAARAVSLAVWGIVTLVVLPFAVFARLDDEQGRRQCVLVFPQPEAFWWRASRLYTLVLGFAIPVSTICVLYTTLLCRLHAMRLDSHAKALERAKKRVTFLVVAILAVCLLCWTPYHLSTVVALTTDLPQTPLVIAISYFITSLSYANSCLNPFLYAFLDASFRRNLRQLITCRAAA

[36] = target: T3, Melanin-concentrating hormone receptor 1 (Homo sapiens, UniProt Q99705); assay: Late-stage fluorescence-based counterscreen for antagonists of the G-protein coupled receptor 7 (GPR7): cell-based dose response assay to identify antagonists of the melanin-concentrating hormone receptor 1 (MCHR1) Set 5.
T3 sequence (Q99705 whole entry): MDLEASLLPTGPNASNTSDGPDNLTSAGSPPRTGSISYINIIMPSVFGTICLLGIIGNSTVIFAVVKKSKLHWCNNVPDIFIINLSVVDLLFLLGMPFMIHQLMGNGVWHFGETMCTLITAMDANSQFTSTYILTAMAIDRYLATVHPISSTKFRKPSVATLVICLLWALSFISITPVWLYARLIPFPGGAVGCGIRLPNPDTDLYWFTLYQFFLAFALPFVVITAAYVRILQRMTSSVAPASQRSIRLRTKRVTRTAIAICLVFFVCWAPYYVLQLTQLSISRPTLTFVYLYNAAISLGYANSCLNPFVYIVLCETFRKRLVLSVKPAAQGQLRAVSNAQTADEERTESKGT

[37] = target: T2, Neuropeptides B/W receptor type 1; assay: GPR7 antagonist potency, late-stage follow-up, cell-based, fluorescence, dose response, set 6 (AID 588583)
[38] = target: T3, Melanin-concentrating hormone receptor 1; assay: Late-stage fluorescence-based counterscreen for antagonists of the G-protein coupled receptor 7 (GPR7): cell-based dose response assay to identify antagonists of the melanin-concentrating hormone receptor 1 (MCHR1) Set 6.

IC50 [1]: > 100 µM (inactive)
SMILES: O=C(Nc1ccc2[nH]c(-c3cccs3)nc2c1)c1cccs1

Ki [2]: 25.1 µM (active)
Ki (Focal adhesion kinase 1): 20 µM (active)
Ki [3]: 31.6 µM (active)
Ki [4]: 63.1 µM (active)
Ki [5]: 6.31 µM (active)
Ki [6]: 0.501 µM (active)
Ki [7]: 20 µM (active)
Ki [8]: 0.0398 µM (active)
Ki [9]: 39.8 µM (active)
Ki [10]: 63.1 µM (active)
Ki [11]: 20 µM (active)
Ki (Aurora kinase A): > 39.8 µM (inactive)
Ki [12]: 7.94 µM (active)
Ki [13]: > 63.1 µM (inactive)
Ki [14]: 6.31 µM (active)
Ki [15]: 2 µM (active)
Ki (Activated CDC42 kinase 1): 15.8 µM (active)
Ki [16]: 79.4 µM (active)
Ki [17]: 31.6 µM (active)
Ki [18]: 20 µM (active)
Ki (Activin receptor type-1): 1 µM (active)
Ki [19]: 63.1 µM (active)
Ki [20]: 20 µM (active)
Ki [21]: 31.6 µM (active)
Ki [23]: 7.94 µM (active)
Ki [24]: 25.1 µM (active)
Ki [25]: 0.251 µM (active)
Ki [26]: 1.26 µM (active)
Ki [27]: 15.8 µM (active)
Ki [28]: 79.4 µM (active)
Ki [29]: 1.26 µM (active)
Ki [30]: 12.6 µM (active)
Ki [31]: 0.501 µM (active)
Ki [32]: 20 µM (active)
Ki [33]: 20 µM (active)
Ki [34]: 0.0794 µM (active)
SMILES: Nc1n[nH]c2cccc(-c3ccc(F)cc3)c12
Ki [22]: 39.8 µM (active)

IC50 [35]: 1.18 µM (active)
IC50 [36]: 3.67 µM (active)
SMILES: N#CC(c1cccnc1)c1cnn(Cc2cccc3ccccc23)c(=O)c1Cl (configuration not stated)

IC50 [37]: 8.2 µM (active)
IC50 [38]: 8.2 µM (active)
SMILES: CCC(C#N)(c1ccccc1)c1c(Br)cnn(Cc2cccc3ccccc23)c1=O (configuration not stated)
